Earlier results in PMC8465315, “Molecular Umbrella as a Nanocarrier for Antifungals” (Molecules, 2021).

Set-up: method as in PMID 15593345
Conditions: in vitro; cited from earlier work

Structure (SMILES): C=C1C[C@H](N)[C@H](C(=O)O)C1 [BAY 10-8888]
- metabolism by liver microsomes: not metabolized
